# According to US5096884A, “Glidobactin PF-1 peptide antibiotics” (Bristol-Myers Squibb Company, priority 1990, dated 1992):
# Where two headings read alike, the source gives them in different places.
# Key:
# [1] = tested on: Streptoccoccus faecalis A9612; test: MIC by serial agar dilution method; type: cell-based; details: Nutrient agar; inoculum 10^4 CFU/mL
# Mucor spinosus IFO 5317 = test: MIC by serial agar dilution method; type: cell-based; details: Sabouraud dextrose agar; inoculum 10^5-10^7
# [2] = tested on: Klebsiella pneumoniae D 11; test: MIC by serial agar dilution method; type: cell-based; details: Nutrient agar; inoculum 10^4 CFU/mL
# Candida albicans A9540 = test: MIC by serial agar dilution method; type: cell-based; details: Sabouraud dextrose agar; inoculum 10^5-10^7
# [3] = tested on: Blastomyces dermatitidis IFO 8144; test: MIC by serial agar dilution method; type: cell-based; details: Sabouraud dextrose agar; inoculum 10^5-10^7
# [4] = tested on: Trichophyton mentagrophytes D155; test: MIC by serial agar dilution method; type: cell-based; details: Sabouraud dextrose agar; inoculum 10^5-10^7
# [5] = tested on: Cryptococcus neoformans D49; test: MIC by serial agar dilution method; type: cell-based; details: Sabouraud dextrose agar; inoculum 10^5-10^7
# [6] = tested on: Staphyloccoccus aureus 209P; test: MIC by serial agar dilution method; type: cell-based; details: Nutrient agar; inoculum 10^4 CFU/mL
# [7] = tested on: Aspergillus fumigatus IAM 2530; test: MIC by serial agar dilution method; type: cell-based; details: Sabouraud dextrose agar; inoculum 10^5-10^7
# [8] = tested on: Pseudomonas aeruginosa A9930; test: MIC by serial agar dilution method; type: cell-based; details: Nutrient agar; inoculum 10^4 CFU/mL
# Escherichia coli NIHJ = test: MIC by serial agar dilution method; type: cell-based; details: Nutrient agar; inoculum 10^4 CFU/mL
# [9] = tested on: Candida albicans IAM 4888; test: MIC by serial agar dilution method; type: cell-based; details: Sabouraud dextrose agar; inoculum 10^5-10^7
# [10] = tested on: Fusarium moniliforme A2284; test: MIC by serial agar dilution method; type: cell-based; details: Sabouraud dextrose agar; inoculum 10^5-10^7
# [11] = tested on: Bacillus subtilis PCI 219; test: MIC by serial agar dilution method; type: cell-based; details: Nutrient agar; inoculum 10^4 CFU/mL
# Piricularia oryzae D9 = details: Sabouraud dextrose agar; inoculum 10^5-10^7
# [12] = tested on: Sporothrix schenckii IFO 8158; test: MIC by serial agar dilution method; type: cell-based; details: Sabouraud dextrose agar; inoculum 10^5-10^7
# B16 Melanoma (ip) = details: for T/C % of MST: ip, QD1→9, ≥125% significant; for antitumor activity against ip-B16 melanoma (in words): at the doses tested
# Experimental: (§1) In vivo antitumor activity of glidobactin PF-1 was determined in experimental mouse tumor systems. Female CDF1 and male BDF1 mice were intraperitoneally inoculated with 0.4 mL of diluted ascitic fluid containing 10^6 lymphocytic leukemia P388 cells and 0.5 mL of 10% melanotic melanoma B16 brei, respectively. Test compounds were intraperitoneally administered daily for 9 days starting from 1 day after the tumor implantation.
# P388 Leukemia (ip) = details: for T/C % of MST: ip, QD1→9, ≥125% significant; for maximum T/C value: P388 leukemia, ip daily for 9 days
# Experimental: as §1
# [13] = tested on: DNA synthesis in L1210 murine leukemia cells; test: Inhibition of macromolecule synthesis, 3H-thymidine incorporation; type: cell-based; details: for IC50, DNA synthesis: L1210 cells, 3H-thymidine, 4 hrs; for inhibitory effect on DNA synthesis (in words): at 100 μg/mL, the highest concentration tested
# Experimental: (§2) Inhibitory effects of glidobactins A and PF-1 on macromolecule biosynthesis (DNA, RNA, and protein) were determined in cultured L1210 murine leukemia cells. The cells (5×10^5 cells/mL) were incubated with test compounds at 37° C. for 15 min and further incubated for 4 hrs after the addition of labeled precursor, ^3 H-thymidine, ^14 C-uridine, or ^3 H-leucine into the cultured mixture. After washing with chilled 5% trichloroacetic acid solution, the radioactivity incorporated into the acid-insoluble fraction of the cells was determined by a liquid scintillation counter.
# bacteria tested = test: In vitro antibacterial activity; type: cell-based; details: at 100 μg/ml
# Experimental: (§3) The minimum inhibitory concentrations (MIC's) of glidobactin PF-1 were determined for various microorganisms by a serial agar dilution method. Nutrient agar (Eiken) was used for bacteria and Sabouraud dextrose agar (Difco) for fungi. The inoculum size was adjusted to 10^4 CFU/mL for bacteria and 10^5 -10^7 for fungi. Invitro antibacterial and antifungal activities of glidobactin PF-1 are shown in Table 3 together with the activities found with glidobactin C.
# [14] = tested on: protein synthesis in L1210 murine leukemia cells; test: Inhibition of macromolecule synthesis, 3H-leucine incorporation; type: cell-based; details: for effect on protein synthesis (in words) / IC50, Protein synthesis: L1210 cells; for IC50, Protein synthesis: 3H-leucine, 4 hrs
# Experimental: as §2
# fungi = test: In vitro antifungal activity; type: cell-based
# Experimental: as §3
# [15] = tested on: RNA synthesis in L1210 murine leukemia cells; test: Inhibition of macromolecule synthesis, 14C-uridine incorporation; type: cell-based; details: for IC50, RNA synthesis: L1210 cells, 14C-uridine, 4 hrs; for inhibitory effect on RNA synthesis (in words): at 100 μg/mL, the highest concentration tested
# Experimental: as §2
# [16] = tested on: P388 (murine lymphocytic leukemia) cells; type: cell-based; details: for IC50: P388 cells, 72 hrs
# Experimental: (§4) Glidobactin PF-1 and glidobactin A were tested for in vitro cytotoxicity against murine tumor cell lines and for in vivo antitumor activity in mice. Mitomycin C was used as a reference compound in both in vitro and in vivo experiments. B16-F10 (murine melanoma) cells were grown to the logarithmic phase in an enriched Eagle minimum essential medium supplemented with fetal calf serum (FCS, 10%) and kanamycin (60 μg/ml). P388 (murine lymphocytic leukemia) cells were in RPMI1640 medium supplemented with FCS (10%), penicillin (100 U/ml), and streptomycin (100 μg/ml). B16-F10 and P388 cells were harvested and implanted into wells of a 96-well (for B16-F10 cells) and a 24-well (for P388 cells) tissue culture plate with test materials at the inoculum sizes of 3×10^4 and 2×10^4 cells/mL, respectively. They were incubated at 37° C. in a humidified atmosphere of 5% CO2 and 95% air for 72 hrs. The cytotoxicity against B16-F10 cells was colorimetrically determined at 540 nm after staining viable cells with 0.006% neutral red solution. As for P388 cells, the number of viable cells was determined by a Coulter counter.
# [17] = tested on: B16-F10 (murine melanoma) cells; type: cell-based; details: for IC50: B16-F10 cells, 72 hrs
# Experimental: as §4
compound,measurement,setting,value
"CCCCCCCCC/C=C/C=C/C(=O)N[C@H](C(=O)N[C@H]1C[C@@H](O)CCNC(=O)/C=C\[C@H](C)NC1=O)[C@@H](C)O [Glidobactin C, glidobactin C]",MIC,[1],> 100 µg/mL
same,MIC,Mucor spinosus IFO 5317,0.8 µg/mL
same,MIC,[2],> 100 µg/mL
same,MIC,Candida albicans A9540,0.2 µg/mL
same,MIC,[3],3.1 µg/mL
same,MIC,[4],0.8 µg/mL
same,MIC,[5],0.8 µg/mL
same,MIC,[6],> 100 µg/mL
same,MIC,[7],1.6 µg/mL
same,MIC,[8],> 100 µg/mL
same,MIC,Escherichia coli NIHJ,> 100 µg/mL
same,MIC,[9],0.4 µg/mL
same,MIC,[10],> 50 µg/mL
same,MIC,[11],> 100 µg/mL
same,MIC,Piricularia oryzae D9,6.3 µg/mL
same,MIC,[12],> 50 µg/mL
"CCC=CCC=CCCC=CC=CC(=O)NC(C(=O)NC1CC(O)CCNC(=O)C=CC(C)NC1=O)C(C)O (stereo not shown) [Glidobactin PF-1, glidobactin PF-1]",MIC,[1],> 100 µg/mL
same,MIC,Mucor spinosus IFO 5317,3.1 µg/mL
same,MIC,[2],> 100 µg/mL
same,MIC,Candida albicans A9540,6.3 µg/mL
same,MIC,[3],12.5 µg/mL
same,solubility (in words),"in methanol, ethanol, n-butanol, and dimethyl sulfoxide",soluble
same,solubility (in words),in n-hexane and water,insoluble
same,MIC,[4],12.5 µg/mL
same,MIC,[5],25 µg/mL
same,MIC,[6],> 100 µg/mL
same,MIC,[7],12.5 µg/mL
same,MIC,[8],> 100 µg/mL
same,T/C % of MST,"B16 Melanoma (ip); B16, 0.13 mg/kg/day",103%
same,T/C % of MST,"B16 Melanoma (ip); B16, 0.25 mg/kg/day",118%
same,T/C % of MST,"B16 Melanoma (ip); B16, 0.5 mg/kg/day",113%
same,T/C % of MST,"B16 Melanoma (ip); B16, 1 mg/kg/day",111%
same,antitumor activity against ip-B16 melanoma (in words),B16 Melanoma (ip),no significant antitumor activity
same,T/C % of MST,"P388 Leukemia (ip); P388, 0.016 mg/kg/day",118%
same,T/C % of MST,"P388 Leukemia (ip); P388, 0.031 mg/kg/day",129%
same,T/C % of MST,"P388 Leukemia (ip); P388, 0.063 mg/kg/day",133%
same,T/C % of MST,"P388 Leukemia (ip); P388, 0.13 mg/kg/day",160%
same,T/C % of MST,"P388 Leukemia (ip); P388, 0.25 mg/kg/day",170%
same,T/C % of MST,"P388 Leukemia (ip); P388, 0.5 mg/kg/day",174%
same,T/C % of MST,"P388 Leukemia (ip); P388, 1 mg/kg/day",130%
same,maximum T/C value,P388 Leukemia (ip),174%
same,potency against P388 relative to glidobactin A,"P388 Leukemia (ip); in vivo P388, relative to glidobactin A",approximately 4 times
same,"IC50, DNA synthesis",[13],> 100 µg/mL
same,inhibitory effect on DNA synthesis (in words),[13],no significant inhibitory effect
same,MIC,Escherichia coli NIHJ,> 100 µg/mL
same,MIC,[9],12.5 µg/mL
same,MIC,[10],> 50 µg/mL
same,MIC,[11],> 100 µg/mL
same,MIC,Piricularia oryzae D9,12.5 µg/mL
same,MIC,[12],> 50 µg/mL
same,inhibition of the bacteria tested (in words),bacteria tested,did not inhibit
same,effect on protein synthesis (in words),[14],inhibited protein synthesis
same,"IC50, Protein synthesis",[14],0.07 µg/mL
same,inhibitory activity on protein synthesis relative to glidobactin A,[14]; relative to glidobactin A,approximately half
same,activity against fungi (in words),fungi,moderate activity
same,intrinsic antifungal activity compared with glidobactin C (in words),fungi; relative to glidobactin C,considerably weaker
same,"IC50, RNA synthesis",[15],> 100 µg/mL
same,inhibitory effect on RNA synthesis (in words),[15],no significant inhibitory effect
same,cytotoxicity (in words),[16],potent cytotoxicity
same,IC50,[16],10 ng/mL
same,cytotoxicity (in words),[17],potent cytotoxicity
same,IC50,[17],0.07 µg/mL
CO[C@@]12[C@H](COC(N)=O)C3=C(C(=O)C(C)=C(N)C3=O)N1C[C@@H]1N[C@@H]12 [Mitomycin C],T/C % of MST,"P388 Leukemia (ip); P388, 0.031 mg/kg/day",115%
same,T/C % of MST,"P388 Leukemia (ip); P388, 0.063 mg/kg/day",140%
same,T/C % of MST,"P388 Leukemia (ip); P388, 0.13 mg/kg/day",145%
same,T/C % of MST,"P388 Leukemia (ip); P388, 0.25 mg/kg/day",170%
same,T/C % of MST,"P388 Leukemia (ip); P388, 0.5 mg/kg/day",190%
same,T/C % of MST,"P388 Leukemia (ip); P388, 1 mg/kg/day",225%
same,"IC50, DNA synthesis",[13],1.7 µg/mL
same,"IC50, Protein synthesis",[14],> 100 µg/mL
same,"IC50, RNA synthesis",[15],> 100 µg/mL
same,IC50,[17],0.50 µg/mL
"CCCCCCC/C=C/C=C/C(=O)N[C@H](C(=O)N[C@H]1C[C@@H](O)CCNC(=O)/C=C/[C@H](C)NC1=O)[C@@H](C)O [Glidobactin A, glidobactin A]",T/C % of MST,"B16 Melanoma (ip); B16, 0.13 mg/kg/day",97%
same,T/C % of MST,"B16 Melanoma (ip); B16, 0.25 mg/kg/day",100%
same,T/C % of MST,"B16 Melanoma (ip); B16, 0.5 mg/kg/day",113%
same,T/C % of MST,"B16 Melanoma (ip); B16, 1 mg/kg/day",116%
same,antitumor activity against ip-B16 melanoma (in words),B16 Melanoma (ip),no significant antitumor activity
same,T/C % of MST,"P388 Leukemia (ip); P388, 0.031 mg/kg/day",100%
same,T/C % of MST,"P388 Leukemia (ip); P388, 0.063 mg/kg/day",110%
same,T/C % of MST,"P388 Leukemia (ip); P388, 0.13 mg/kg/day",130%
same,T/C % of MST,"P388 Leukemia (ip); P388, 0.25 mg/kg/day",150%
same,T/C % of MST,"P388 Leukemia (ip); P388, 0.5 mg/kg/day",155%
same,T/C % of MST,"P388 Leukemia (ip); P388, 1 mg/kg/day",190%
same,maximum T/C value,P388 Leukemia (ip),190%
same,"IC50, DNA synthesis",[13],> 100 µg/mL
same,inhibitory effect on DNA synthesis (in words),[13],no significant inhibitory effect
same,effect on protein synthesis (in words),[14],inhibited protein synthesis
same,"IC50, Protein synthesis",[14],0.03 µg/mL
same,"IC50, RNA synthesis",[15],> 100 µg/mL
same,inhibitory effect on RNA synthesis (in words),[15],no significant inhibitory effect
same,cytotoxicity (in words),[16],potent cytotoxicity
same,IC50,[16],8 ng/mL
same,cytotoxicity (in words),[17],potent cytotoxicity
same,IC50,[17],0.04 µg/mL
